Test results as given in article PMC9612326 (Viruses, 2022).
Peptide text beside a SMILES is read from it.

Tests used:
[1] = Peptide stability in human serum; settings: human serum (50% v/v) from a healthy donor
[2] = target: His-tagged Spike RBD protein (SARS-CoV-2) (UniProt P0DTC2); test: BLI

Molecule	half-life at 1 mM [1] [h]	Kd [2] [µM]
CC(C)C[C@H](NC(=O)[C@@H](N)[C@@H](C)O)C(=O)N[C@@H](Cc1c[nH]cn1)C(N)=O [TLH] (H-Thr-Leu-His-NH2)	4.36	
CC[C@H](C)[C@H](NC(=O)[C@H](Cc1ccccc1)NC(=O)[C@@H](N)C(C)C)C(N)=O [VFI] (H-Val-Phe-Ile-NH2)	12.4	
tripeptide TLH		22.8
tripeptide VFI		28.4
